From patent US12618847B2 (Purdue Research Foundation, priority 2020, dated 2026) come the findings set out here.

Test [1] relates to human purified 20S proteasome. Kind of test: Detection of small molecule stimulators with TAS probes using purified 20S proteasome (FIG. 7B-7D). To be noted: detected with TAS1 and TAS3. It counts as biochemical. As for the experimental part: FIG. 7B-7D show the analysis of TAS probes (TAS-1-B, TAS-2-C, TAS-3-D) for their ability to detect different small molecule stimulators using human purified 20S proteasome.
All three probes were able to detect stimulation is determined by an increase in the % activity over 60 min as compared to the DMSO control. Both TAS1 and TAS3 can differentiate between weak (TRC-1 and TCM-1) and strong proteasome stimulators (MK-886).

The next test deals with T1, proteasome.
T1 construct: endogenous in cells; host or cells: A549 (inferred; the stimulator paragraph says only 'cells')
Kind of test: Proteasome stimulation in cells monitored with TAS probes. It counts as cell-based. The source says: In addition to determining if our probes are capable of detecting a decrease in proteasome activity, we were also interested in monitoring molecules which have shown to increase proteasome activity, also known as proteasome stimulators. […] However, this method requires transfection of the MT-fusion protein into cells and analysis by Western blot. Given the promising results with MG-132, we expected our probes to be sensitive enough to detect proteasome stimulation in a similar manner. Using three molecules reported to have various degrees of stimulation, cells were dosed for one hour before washing and adding in each probe. The samples were then monitored for changes in fluorescence and analyzed in the same way as the MG-132 experiment.
Previously proteasome stimulators had been discovered using a biochemical assay that required purified proteasome. As with all enzyme purifications, the batch to batch activity can vary greatly, leading to inconsistent results. […]
Using three different stimulating small molecules previously validated using other methods, we found both TAS1 and TAS3 would be suitable to use in such an assay. […] An increase in proteasome activity can be detected after as little as 15 min of incubation time, which can help to increase throughput during a screening campaign. […]

Another test has as its target 20S CP (Homo sapiens, UniProt P20618+P28074). Kind of test: Fluorescence hydrolysis of probes by purified 20S CP (plate reader). It counts as biochemical. To be noted: 30 μM probe. On the procedure: The peptide recognition sequence used was based on the commercially available 4-mer AMC probe (FIG. 1A), specifically Leu-Leu-Val-Tyr (SEQ ID NO: 1), to generate TAS1 (FIG. 1B). To determine if TAS1 had any enhanced sensitivity, the two probes were compared under the same conditions with purified 20S CP. Briefly, the probes were incubated in triplicate at 10 and 30 μM with 9 nM […] at 37° C. The change in fluorescence was monitored for two hours and the endpoint values were averaged and graphed for comparison (FIG. 1C). Because the two fluorophores have different excitation and emission wavelengths, the two experiments were performed separately but using the same conditions for the plate reader (i.e. gain, number of flashes, settling time, etc.). […] Since, unlike Suc-LLVY-AMC (SEQ ID NO: 1), TAS1 has the potential to have more than one cleavage site which could result in an increase in fluorescence (on either side of Rh110), we confirmed that the increase in signal is only from the recognition and cleavage of the peptide at the Tyr moiety by analyzing the 30 μM TAS1 samples by LC/MS (FIG. 2).
With these new peptide sequences in hand, we returned to incorporating the Rh110-peptoid moiety and to compare the cleavage of TAS1-3 with the 20S CP. We incubated all three probes at various concentrations with 9 nM 20S CP and monitored the change in fluorescence using a microplate reader. […] In order to compare the three probes, we fit a linear regression for the points from 10-60 min for 30 μM of each probe to obtain a rate for the change in fluorescence (Table 1). Of the three, TAS1 was hydrolyzed the quickest, although the slope for TAS2 was similar. […] To confirm that the change in fluorescence was due to amide bond cleavage at the expected site on the peptide, we analyzed the samples at a concentration of 30 μM by LC/MS (FIG. 3).

In another test the test system is A549 cells. The experiment in a line: Probe cleavage in live A549 cells with or without MG-132 pretreatment. It counts as cell-based. To be noted: 10 μM probe, 5,000 cells/well, 90 min. On the procedure: We next sought to determine if the TAS probes would be suitable for cell-based assays. To accomplish this, A549 cells were plated at a density of 5,000 cells/well in a black 96 well plate with a black bottom. After allowing the cells to adhere to the plate, the samples were washed with PBS three times then dosed with 10 μM of each probe in modified KRBH buffer. The change in fluorescence was recorded on a microplate reader for 90 min. After allowing the signal to equilibrate for […], each sample was set to zero and the future time points were scaled accordingly. As was done with the biochemical data, a linear regression was fit to each set of data. From the slope, it is observed that the rate for TAS2 was the highest. To determine the in-cell selectivity, a set of samples pretreated with MG-132 (10 μM), a proteasome inhibitor, was included for each probe. These samples were pre-incubated with MG-132 in cell culture media for one hour before washing with PBS and dosing with each probe in modified KRBH buffer. […] To ensure this decrease was not a consequence of cell death, cells were treated in the same way and analyzed using Cell-Titer Glo.

In another test the test system is A498. The experiment in a line: TAS2 rate of hydrolysis in live cells. It is filed as cell-based. The following applies: A498, TAS2 10 μM, 5,000 cells/well. As for the experimental part: (§1) To compare these cells lines, each was plated at the same density of 5,000 cells/well in a black 96 well plate—for adherent cells lines A498, SK-MEL-2, MEL-92.1, SH-SY5Y and HEK293T, the cells were allowed to adhere overnight before using in the assay; MM.1R cells were plated and used directly after. Samples were incubated with either DMSO or TAS2 (10 μM) for 15 min, washed with PBS three times before putting the plate in a microplate reader to record the fluorescence intensity over 90 min. The experiment was performed in technical triplicate and experimental duplicate for each cell line and the rate of hydrolysis of TAS-2 was determined, Table 2.

A further test relates to HEK-293T. Kind of test: TAS2 rate of hydrolysis in live cells. It counts as cell-based. The following applies: TAS2 10 μM, 5,000 cells/well. As for the experimental part:
as §1

For a further test, the system named is MEL-92.1. The experiment in a line: TAS2 rate of hydrolysis in live cells. It is filed as cell-based. To be noted: MEL-92.1, TAS2 10 μM, 5,000 cells/well. As for the experimental part: as §1
The next test deals with MM.1R. Kind of test: TAS2 rate of hydrolysis in live cells. It counts as cell-based. To be noted: TAS2 10 μM, 5,000 cells/well. On the procedure:
as §1

The next test concerns SH-SY5Y. The experiment in a line: TAS2 rate of hydrolysis in live cells. It counts as cell-based. To be noted: TAS2 10 μM, 5,000 cells/well. On the procedure: as §1
The test system of a further test is SK-MEL-2. The experiment in a line: TAS2 rate of hydrolysis in live cells. The following applies: SK-MEL-2, TAS2 10 μM, 5,000 cells/well. It is filed as cell-based. On the procedure: as §1

Where no end group is shown, it is not given here. [ ]: non-standard residue; d: D form. Phe(4-Cl) = N[C@@H](Cc1ccc(Cl)cc1)C(=O)O

Take `CC(C)c1ccc2c(c1)c(SC(C)(C)C)c(CC(C)(C)C(=O)O)n2Cc1ccc(Cl)cc1` [MK-886]: the “Proteasome stimulator strength (% activity over 60 min vs DMSO)” value in test [1] is listed as “strong”. Besides, the “Increase in proteasome activity vs DMSO” value is “greater than 3 fold” in the test with proteasome (probe TAS1, cells dosed one hour) and “greater than 3 fold” with proteasome (probe TAS3, cells dosed one hour).
Regarding “TAS2: Rh110-based peptide/peptoid hybrid probe with Phe(4-Cl) as Tyr substitute (LLV[Phe(4-Cl)]; also: Rh110-based probe, place not given here, peptide/peptoid hybrid)”, the “Rate of Hydrolysis” value is reported as 63.8 ΔRFU/min with 20S CP (9 nM purified 20S CP, linear regression 10-60 min); 39.6 ± 4.8 ΔRFU/min in the test on A498; 6.7 ± 3.2 ΔRFU/min in the test on HEK-293T; 16.4 ± 2.6 ΔRFU/min in the test with MEL-92.1; 81.6 ± 25.5 ΔRFU/min with MM.1R; 5.8 ± 0.4 ΔRFU/min in the test with SH-SY5Y. The “Rate of Hydrolysis” value with SK-MEL-2 is 12.1 ± 1.3 ΔRFU/min. For the same compound, the “Cleavage products after incubation with 20S CP (LC/MS)” value in the test with 20S CP (LC/MS) is “only produced the expected cleavage products”. The “Rate of probe cleavage in A549 cells (slope)” value with A549 cells is “highest”.
